Reference: patent US8815219B2, “Sunless tanning with pyranones and furanones” (Conopco, Inc., priority 2009, dated 2014)

How the values were obtained:
[1] = Visual observation and photographs of tanning rate (color formation) in DHA/glycine compositions; conditions: Allomaltol 0.5-3 wt.% added to 5% DHA, 5% glycine in water; visual observations and photographs
From the text: (§1) Compositions comprising Allomaltol were made by mixing the following: […]

[2] = Color development of DHA/glycine compositions by spectrophotometer at 400 nm; conditions: for enhancement in tanning: Example 6, conclusion from 6 and 27 hour results, DHA 5%, glycine 5%
Description: Color development for the above was also assessed using a spectrophotometer set at a wavelength of 400 nm. […] Compositions comprising KOjic acid or Allomaltol were made by mixing the following ingredients at room temperature. […] Visual observation and photographs were taken after 27 hours of mixing. […] 35%, 38% and 19%, respectively, as determined by assessing the Samples with a Spectrophotometer, wavelength 400 nm. […] Compositions were made by mixing the following ingredients at room temperatures. […] All percents are by weight. The Samples were assessed for color development (with a Spectrophometer, 400 nm wavelength) three (3) days after mixing. […] The following compositions were mixed in a manner similar to the one described in Example 7. The Samples were assessed (with a Spectrophotometer, 400 nm wavelength) fifteen (15) hours after mixing.

[3] = Dissolution of Allomaltol in the aqueous composition; type: physicochemical; conditions: 3 wt.% Allomatol in 5% DHA, 5% glycine, balance water (Example 3 Sample 5)
From the text: as §1

[4] = 400 nm, after 20 hours of mixing, 5% DHA, 5% glycine

With `Cc1cc(=O)c(O)co1` [Allomaltol, 3-hydroxy-6-methyl, 4-pyrone] the “tanning rate (color formation)” value [1] was “enhanced”, the “color development at 3% Allomaltol greater than at 0.5% Allomaltol” value [2, 4] was 45% and the “color development at 3% Allomaltol greater than at 1% Allomaltol” value [2, 4] was 40%. The “color development at 3% Allomaltol greater than at 2% Allomaltol” value [2, 4] was 20%, the “color development at 3% Allomaltol greater than composition deplete of adjuvant” value [2, 4] was 60% and the enhancement in tanning [2] was “enhancement in tanning”. The Allomatol dissolved [3] was “***= circa 95% Allomatol was dissolved”.

In the case of `O=c1cc(CO)occ1O` [Kojic acid], the enhancement in tanning [2] is reported as “enhancement in tanning”.

With `Cc1cc(=O)c(NCC(=O)O)co1` [adjuvant] the “color body generation with glycine and no DHA” value ([2]; Example 8, 0.5% adjuvant, 5% glycine, fifteen hours after mixing) was “No color body generation”.

In the case of `O=c1cc(CCl)occ1O` [chlorinated adjuvant], the “color body generation with glycine and no DHA” value ([2]; Example 7, 0.25% chlorinated adjuvant, 5% glycine, three days after mixing) is reported as “No color body generation”.
